This is an account of results in ChEMBL document CHEMBL1157887, “4-Substituted 4-(1H-1,2,3-triazol-1-yl)piperidine: novel C7 moieties of fluoroquinolones as antibacterial agents” (2010).

Common to all, as to type: functional
Test [1] concerns Pseudomonas aeruginosa. Kind of test: Antibacterial activity against Pseudomonas aeruginosa by broth microdilution technique. (In general: Dilution methods test growth across graded concentrations, often in twofold steps.)
Test [2] relates to Escherichia coli. Kind of test: Antibacterial activity against Escherichia coli by broth microdilution technique.
For test [3], the system named is Enterococcus faecalis. Kind of test: Antibacterial activity against Enterococcus faecalis ATCC 29212 by broth microdilution technique.
Test [4] has as its system Staphylococcus epidermidis. Kind of test: Antibacterial activity against Staphylococcus epidermidis ATCC 12228 by broth microdilution technique.
Test [5] relates to Staphylococcus aureus. Kind of test: Antibacterial activity against Staphylococcus aureus ATCC 25923 by broth microdilution technique.
Test [6] relates to Staphylococcus aureus. Kind of test: Antibacterial activity against multidrug resistant Staphylococcus aureus clinical isolate by broth microdilution technique.
In test [7] the test system is Pseudomonas aeruginosa. Kind of test: Antibacterial activity against multidrug resistant Pseudomonas aeruginosa clinical isolate by broth microdilution technique.
The subject of test [8] is Staphylococcus epidermidis. Kind of test: Selectivity ratio of MIC of ciprofloxacin to MIC of compound for Staphylococcus epidermidis ATCC 12228.

The structures appear in SMILES notation. In brackets after ≈: the same amount, converted by molar mass.

Usually MIC stands for the lowest concentration that inhibits growth of the organism. In the case of `O=C(O)c1cn(C2CC2)c2nc(N3CCC(n4cc(-c5ccccc5)nn4)CC3)c(F)cc2c1=O`, the minimal inhibitory concentration (MIC) in test [1] is over 32 µg/mL; in test [2], 32 µg/mL (≈ 67.4 µM); in test [3], 1 µg/mL (≈ 2.11 µM); in test [4], 0.5 µg/mL (≈ 1.05 µM); in test [5] it was 0.5 µg/mL (≈ 1.05 µM); in test [6], 0.5 µg/mL (≈ 1.05 µM).

As to `O=C(O)c1cn(C2CC2)c2nc(N3CCC(n4cc(/C=N/O)nn4)CC3)c(F)cc2c1=O`, the minimum inhibitory concentration (MIC) in test [1] was 32 µg/mL (≈ 72.5 µM); in test [7] it was 32 µg/mL (≈ 72.5 µM); in test [2] it was 2 µg/mL (≈ 4.53 µM); in test [3], 4 µg/mL (≈ 9.06 µM); in test [4], 1 µg/mL (≈ 2.27 µM); in test [5] it was 1 µg/mL (≈ 2.27 µM). The minimum inhibitory concentration (MIC) in test [6] is over 32 µg/mL.

On to `O=C(O)c1cn(C2CC2)c2nc(N3CCC(n4cc(CO)nn4)CC3)c(F)cc2c1=O`, for which the minimal inhibitory concentration (MIC) in test [1] was found to be 32 µg/mL (≈ 74.7 µM); in test [7], 32 µg/mL (≈ 74.7 µM); in test [2] it was 0.5 µg/mL (≈ 1.17 µM); in test [3] it was 2 µg/mL (≈ 4.67 µM); in test [4] it was 0.5 µg/mL (≈ 1.17 µM); in test [5], 0.125 µg/mL (≈ 0.292 µM). In test [6], this compound came in with an MIC of over 32 µg/mL.

As to `NCc1cn(C2CCN(c3nc4c(cc3F)c(=O)c(C(=O)O)cn4C3CC3)CC2)nn1`, the MIC in test [1] is 32 µg/mL (≈ 74.9 µM); in test [7], 32 µg/mL (≈ 74.9 µM); in test [2] it was 16 µg/mL (≈ 37.4 µM); in test [3] it was over 32 µg/mL; in test [4], 32 µg/mL (≈ 74.9 µM); in test [5], 16 µg/mL (≈ 37.4 µM). Further, the MIC in test [6] is over 32 µg/mL.

Turning to `COC(=O)c1cn(C2CCN(c3nc4c(cc3F)c(=O)c(C(=O)O)cn4C3CC3)CC2)nn1`, the minimal inhibitory concentration (MIC) in test [1] was 32 µg/mL (≈ 70.1 µM); in test [7], 32 µg/mL (≈ 70.1 µM); in test [2] it was 1 µg/mL (≈ 2.19 µM); in test [3], 16 µg/mL (≈ 35.1 µM); in test [4], 1 µg/mL (≈ 2.19 µM); in test [5], 1 µg/mL (≈ 2.19 µM). The MIC in test [6] was over 32 µg/mL.

Turning to `NC(=O)c1cn(C2CCN(c3nc4c(cc3F)c(=O)c(C(=O)O)cn4C3CC3)CC2)nn1`, the MIC in test [1] worked out at 32 µg/mL (≈ 72.5 µM); in test [7], 32 µg/mL (≈ 72.5 µM); in test [2] it was 4 µg/mL (≈ 9.06 µM); in test [3], 4 µg/mL (≈ 9.06 µM); in test [4], 2 µg/mL (≈ 4.53 µM); in test [5] it was 1 µg/mL (≈ 2.27 µM). The compound also gave a minimal inhibitory concentration (MIC) in test [6] of over 32 µg/mL.

For `O=C(O)c1cn(C2CC2)c2nc(N3CCC(n4cc(/C=N/OCc5ccccc5)nn4)CC3)c(F)cc2c1=O`, the minimal inhibitory concentration (MIC) in test [1] stood at 32 µg/mL (≈ 60.2 µM); in test [7], 32 µg/mL (≈ 60.2 µM); in test [2], 8 µg/mL (≈ 15.1 µM); in test [3], 4 µg/mL (≈ 7.53 µM); in test [4], 1 µg/mL (≈ 1.88 µM); in test [5] it was 1 µg/mL (≈ 1.88 µM). Moreover, the MIC in test [6] stood at 4 µg/mL (≈ 7.53 µM).

`O=Cc1cn(C2CCN(c3nc4c(cc3F)c(=O)c(C(=O)O)cn4C3CC3)CC2)nn1`: the MIC in test [1] is 16 µg/mL (≈ 37.5 µM); in test [7], 32 µg/mL (≈ 75 µM); in test [2] it was 0.25 µg/mL (≈ 0.586 µM); in test [3], 2 µg/mL (≈ 4.69 µM); in test [4], 0.031 µg/mL (≈ 0.0727 µM); in test [5] it was 0.125 µg/mL (≈ 0.293 µM). The compound also returned an MIC in test [6] of over 32 µg/mL. Further, in test [8], the Ratio stood at 16.

`CC(O)c1cn(C2CCN(c3nc4c(cc3F)c(=O)c(C(=O)O)cn4C3CC3)CC2)nn1` (stereo unspecified): the MIC in test [1] stood at 32 µg/mL (≈ 72.3 µM); in test [7], 32 µg/mL (≈ 72.3 µM); in test [2], 1 µg/mL (≈ 2.26 µM); in test [3] it was 8 µg/mL (≈ 18.1 µM); in test [4] it was 2 µg/mL (≈ 4.52 µM); in test [5], 2 µg/mL (≈ 4.52 µM). This compound gave a minimum inhibitory concentration (MIC) in test [6] of over 32 µg/mL.

Take `CO/N=C/c1cn(C2CCN(c3nc4c(cc3F)c(=O)c(C(=O)O)cn4C3CC3)CC2)nn1`: the MIC turned out to be 32 µg/mL (≈ 70.3 µM) in test [1]; 32 µg/mL (≈ 70.3 µM) in test [7]; 2 µg/mL (≈ 4.39 µM) in test [2]; 4 µg/mL (≈ 8.78 µM) in test [3]; 0.5 µg/mL (≈ 1.1 µM) in test [4]; 0.25 µg/mL (≈ 0.549 µM) in test [5]. Also, the MIC in test [6] is over 32 µg/mL.

As for `CCO/N=C/c1cn(C2CCN(c3nc4c(cc3F)c(=O)c(C(=O)O)cn4C3CC3)CC2)nn1`, the MIC is 32 µg/mL (≈ 68.2 µM) in test [1]; 32 µg/mL (≈ 68.2 µM) in test [7]; 4 µg/mL (≈ 8.52 µM) in test [2]; 4 µg/mL (≈ 8.52 µM) in test [3]; 1 µg/mL (≈ 2.13 µM) in test [4]; 0.5 µg/mL (≈ 1.07 µM) in test [5]. The same compound yielded an MIC in test [6] of 32 µg/mL (≈ 68.2 µM).

For the compound `C=CCO/N=C/c1cn(C2CCN(c3nc4c(cc3F)c(=O)c(C(=O)O)cn4C3CC3)CC2)nn1`, the minimum inhibitory concentration (MIC) was 32 µg/mL (≈ 66.5 µM) in test [1]; 32 µg/mL (≈ 66.5 µM) in test [7]; 4 µg/mL (≈ 8.31 µM) in test [2]; 8 µg/mL (≈ 16.6 µM) in test [3]; 2 µg/mL (≈ 4.15 µM) in test [4]; 0.5 µg/mL (≈ 1.04 µM) in test [5]. For the same compound, the minimum inhibitory concentration (MIC) in test [6] is 8 µg/mL (≈ 16.6 µM).

Consider `C#CCO/N=C/c1cn(C2CCN(c3nc4c(cc3F)c(=O)c(C(=O)O)cn4C3CC3)CC2)nn1`, for which the MIC amounted to 32 µg/mL (≈ 66.7 µM) in test [1]; 32 µg/mL (≈ 66.7 µM) in test [7]; 4 µg/mL (≈ 8.34 µM) in test [2]; 8 µg/mL (≈ 16.7 µM) in test [3]; 1 µg/mL (≈ 2.09 µM) in test [4]; 0.5 µg/mL (≈ 1.04 µM) in test [5]. Moreover, inhibition of growth in test [6] (MIC) required 32 µg/mL (≈ 66.7 µM).

Take `CCC(O)c1cn(C2CCN(c3nc4c(cc3F)c(=O)c(C(=O)O)cn4C3CC3)CC2)nn1` (stereo unspecified): the minimum inhibitory concentration (MIC) in test [1] is 32 µg/mL (≈ 70.1 µM); in test [7] it was 32 µg/mL (≈ 70.1 µM); in test [2], 1 µg/mL (≈ 2.19 µM); in test [3] it was 8 µg/mL (≈ 17.5 µM); in test [4], 2 µg/mL (≈ 4.38 µM); in test [5], 2 µg/mL (≈ 4.38 µM). Besides, the minimal inhibitory concentration (MIC) in test [6] is over 32 µg/mL.

Regarding `O=C(O)c1cn(C2CC2)c2cc(N3CCNCC3)c(F)cc2c1=O` [CIPROFLOXACIN], the results for the minimum inhibitory concentration (MIC) in test [3] and in test [4] were 1 µg/mL (≈ 3.02 µM) and 0.5 µg/mL (≈ 1.51 µM), respectively.

On to `CN[C@H](CC(C)C)C(=O)N[C@H]1C(=O)N[C@@H](CC(N)=O)C(=O)N[C@H]2C(=O)N[C@H]3C(=O)N[C@H](C(=O)N[C@H](C(=O)O)c4cc(O)cc(O)c4-c4cc3ccc4O)[C@H](O)c3ccc(c(Cl)c3)Oc3cc2cc(c3O[C@@H]2O[C@H](CO)[C@@H](O)[C@H](O)[C@H]2O[C@H]2C[C@](C)(N)[C@H](O)[C@H](C)O2)Oc2ccc(cc2Cl)[C@H]1O` [VANCOMYCIN], for which, in test [3], the MIC came to 0.5 µg/mL (≈ 0.345 µM).
